{"source": "patent US20180116960A1", "about": "“TREATING FUNGAL INFECTION OF THE NAIL UNIT” (priority 2009, published 2018)", "key": {"[1]": {"assay": "solubility of terbinafine HCl in solvents", "type": "physicochemical", "settings": "thermodynamic from solid", "description": "(§1) With 0.1% Tween-80 in water, the solubility of terbinafine HCl in terbinafine HCl-PEG 3350 blend (75/25, W/W) was 4 mg/mL. […] The final pH was 3.0.\n(§2) When DMSO is used as the solvent, the solubility of terbinafine HCl was close to 100 mg/mL. […] The solution was made by weighing 100 mg of terbinafine HCl powder in a glass vial and then adding 1 ml of DMSO solvent. The glass vial was sealed and vortexed for 5 minutes with a mini vortexor. The resulting solution was clear."}, "[2]": {"assay": "stability of terbinafine HCl solutions on standing", "type": "physicochemical", "description": "as §1, §2"}}, "note": "Where a name gives a salt, the structure may show the parent alone.", "data": [{"smiles": "CN(C/C=C/C#CC(C)(C)C)Cc1cccc2ccccc12", "note": "[terbinafine HCl]", "values": [{"measurement": "solubility at 5 min", "setting": "[1]; DMSO, organic solvent or mixture", "value": "~100000", "unit": "µg/mL"}, {"measurement": "solubility", "setting": "[1]; aqueous buffer, phosphate-buffered saline (PBS 1×, starting pH 7.4), final pH 4.2", "value": 780, "unit": "µg/mL"}, {"measurement": "solubility", "setting": "[1]; aqueous with cosolvent or surfactant or cyclodextrin, 0.1% Tween-80 in water, terbinafine HCl in terbinafine HCl-PEG 3350 blend (75/25, W/W), final pH 3.0", "value": 4000, "unit": "µg/mL"}, {"measurement": "appearance of solution on standing", "setting": "[2]; 0.1% Tween-80 in water, room temperature, 5 days", "value": "clear but turned cloudy"}, {"measurement": "time the solution was stable", "setting": "[2]; DMSO solution", "value": "up to 7 days"}, {"measurement": "concentration of solution on storage", "setting": "[2]; DMSO solution, after 14 days up to 22 days", "value": "remained constant"}, {"measurement": "concentration of solution on storage", "setting": "[2]; DMSO solution, at 14 days", "value": 90000, "unit": "µg/mL"}]}]}
